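Exposure lasted 48 hours, with cells grown in 96-well plates and compounds tested at five concentrations. GI50: concentration for 50% inhibition of growth. TGI marks complete inhibition of growth.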
How the values were obtained:
Experiment in all cases: NCI tumour cell line growth inhibition, 48 h
[1] = test system: NCI-H226 lung
[2] = test system: OVCAR-4 ovarian
[3] = test system: HCC-2998 colon
[4] = test system: COLO 205 colon
[5] = test system: SK-MEL-2 melanoma
[6] = test system: U251 CNS
[7] = test system: LOX IMVI melanoma
[8] = test system: SW-620 colon
[9] = test system: UACC-257 melanoma
[10] = test system: SK-OV-3 ovarian
[11] = test system: MCF7 breast
[12] = test system: HOP-92 NSCLC
[13] = test system: K-562 leukemia
[14] = test system: 786-0 renal
[15] = test system: SF-295 CNS
[16] = test system: MALME-3M melanoma
[17] = test system: NCI-H23 lung
[18] = test system: SN12C renal
[19] = test system: CCRF-CEM leukemia
[20] = test system: MOLT-4 leukemia
[21] = test system: IGROV1 ovarian
[22] = test system: HL-60(TB) leukemia
[23] = test system: EKVX NSCLC
[24] = test system: HOP-62 NSCLC
[25] = test system: ACHN renal
[26] = test system: T-47D breast
[27] = test system: CAKI-1 renal
[28] = test system: TK-10 renal
[29] = test system: SNB-75 CNS
[30] = test system: HS 578T breast
[31] = test system: BT-549 breast
[32] = test system: MDA-MB-231 breast
[33] = test system: NCI-H460 lung
[34] = test system: UO-31 renal
[35] = test system: RXF 393 renal
[36] = test system: SR leukemia
[37] = test system: NCI/ADR-RES ovarian
[38] = test system: DU-145 prostate
[39] = test system: SF-539 CNS
[40] = test system: HT29 colon
[41] = test system: SNB-19 CNS
[42] = test system: OVCAR-8 ovarian
[43] = test system: PC-3 prostate
[44] = test system: HCT-116 colon
[45] = test system: RPMI-8226 leukemia
[46] = test system: HCT-15 colon
[47] = test system: KM12 colon
[48] = test system: SF-268 CNS
[49] = test system: NCI-H522 lung
[50] = test system: SK-MEL-28 melanoma
[51] = test system: A498 renal
[52] = test system: A549 NSCLC
[53] = test system: MDA-MB-435
[54] = test system: M14 melanoma
[55] = test system: OVCAR-5 ovarian
[56] = test system: UACC-62 melanoma
[57] = test system: SK-MEL-5 melanoma

CN(C)CCNC(=O)c1ccc(-c2nc3ccc4[nH]ncc4c3c3c2COCC3)cc1
GI50 [1]: 1240 nM
TGI [1]: 7140 nM
GI50 [2]: 1850 nM
TGI [2]: 8910 nM
GI50 [3]: 1080 nM
TGI [3]: 3240 nM
GI50 [4]: 480 nM
TGI [4]: 2050 nM
GI50 [5]: 360 nM
TGI [5]: 1120 nM
GI50 [6]: 659 nM
TGI [6]: 16300 nM
GI50 [7]: 465 nM
TGI [7]: 1850 nM
GI50 [8]: 527 nM
TGI [8]: 4880 nM
GI50 [9]: 2410 nM
TGI [9]: 8170 nM
GI50 [10]: 1060 nM
TGI [10]: 28500 nM
GI50 [11]: 293 nM
TGI [11]: 7660 nM
GI50 [12]: 1000 nM
TGI [12]: 5860 nM
GI50 [13]: 740 nM
TGI [13]: > 100000 nM
GI50 [14]: 2050 nM
TGI [14]: 9430 nM
GI50 [15]: 3270 nM
TGI [15]: 16000 nM
GI50 [16]: 786 nM
TGI [16]: 2690 nM
GI50 [17]: 1240 nM
TGI [17]: 3310 nM
GI50 [18]: 1000 nM
TGI [18]: 5400 nM
GI50 [19]: 374 nM
TGI [19]: 50400 nM
GI50 [20]: 604 nM
TGI [20]: 5210 nM
GI50 [21]: 1280 nM
TGI [21]: 9200 nM
GI50 [22]: 1300 nM
TGI [22]: 4880 nM
GI50 [23]: 2170 nM
TGI [23]: 12800 nM
GI50 [24]: 1100 nM
TGI [24]: 4070 nM
GI50 [25]: 2850 nM
TGI [25]: 21700 nM
GI50 [26]: 750 nM
TGI [26]: > 100000 nM
GI50 [27]: 1200 nM
TGI [27]: 12700 nM
GI50 [28]: 1450 nM
TGI [28]: 7130 nM
GI50 [29]: 382 nM
TGI [29]: 1460 nM
GI50 [30]: 523 nM
TGI [30]: 3580 nM
GI50 [31]: 624 nM
TGI [31]: 2370 nM
GI50 [32]: 791 nM
TGI [32]: 5000 nM
GI50 [33]: 2200 nM
TGI [33]: 5460 nM
GI50 [34]: 6750 nM
TGI [34]: 62400 nM
GI50 [35]: 239 nM
TGI [35]: 1040 nM
GI50 [36]: 301 nM
TGI [36]: 2250 nM
GI50 [37]: 24100 nM
TGI [37]: > 100000 nM
GI50 [38]: 1490 nM
TGI [38]: 8680 nM
GI50 [39]: 512 nM
TGI [39]: 2210 nM
GI50 [40]: 2050 nM
TGI [40]: 6990 nM
GI50 [41]: 587 nM
TGI [41]: 7470 nM
GI50 [42]: 1230 nM
TGI [42]: 11100 nM
GI50 [43]: 1120 nM
TGI [43]: 8120 nM
GI50 [44]: 367 nM
TGI [44]: 11300 nM
GI50 [45]: 2170 nM
TGI [45]: 7310 nM
GI50 [46]: 10800 nM
TGI [46]: > 100000 nM
GI50 [47]: 955 nM
TGI [47]: 5260 nM
GI50 [48]: 292 nM
TGI [48]: 1820 nM
GI50 [49]: 188 nM
TGI [49]: 372 nM
GI50 [50]: 1280 nM
TGI [50]: 3940 nM
GI50 [51]: 1190 nM
TGI [51]: 2810 nM
GI50 [52]: 3180 nM
TGI [52]: > 100000 nM
GI50 [53]: 677 nM
TGI [53]: 2150 nM
GI50 [54]: 1370 nM
TGI [54]: 3270 nM
GI50 [55]: 3010 nM
TGI [55]: 28200 nM
GI50 [56]: 767 nM
TGI [56]: 2570 nM
GI50 [57]: 2270 nM
TGI [57]: 6210 nM

Reference: PubChem BioAssay (NCI)
